From patent publication US20140371074A1, “METHOD TO INCREASE PLANT YIELD” (priority 2012, published 2014)

System: soybean variety L2438R2
Test: Field: seed treatment with 2,4-D mixture 0.01-0.09 ounces per 100 pounds of seed, Laurel, Iowa (Table 7)
Type: in vivo
Protocol: Previously untreated soybean seeds were treated with between 0.01 ounces to 0.09 ounces of 2,4-D solution per 100 pounds of seed, in which 0.01 ounces is equivalent to 0.0002968 pounds acid equivalent of 2,4-D. The seed variety was L2438R2 and seeds were planted in Laurel, Iowa with a row width of 50 inches. Four rows were planted and the middle two rows were harvested.

[1] = 0.01 ounces per 100 pounds of seed
[2] = 0.02 ounces per 100 pounds of seed
[3] = 0.03 ounces per 100 pounds of seed
[4] = 0.04 ounces per 100 pounds of seed
[5] = 0.05 ounces per 100 pounds of seed
[6] = 0.06 ounces per 100 pounds of seed
[7] = 0.07 ounces per 100 pounds of seed
[8] = 0.08 ounces per 100 pounds of seed
[9] = 0.09 ounces per 100 pounds of seed

O=C(O)COc1ccc(Cl)cc1Cl [2,4-D, 2,4-Dichlorophenoxyacetic acid]
Repetition 1 Total weight [1]: 14.80 pounds | Repetition 1 Yield [1]: 46.49 Bu/acre | Repetition 2 Total weight [1]: 15.60 pounds | Repetition 2 Yield [1]: 48.92 Bu/acre | Total yield (total average yield) [1]: 47.70 Bu/acre | Repetition 1 Total weight [2]: 15.90 pounds | Repetition 1 Yield [2]: 50.21 Bu/acre | Repetition 2 Total weight [2]: 16.10 pounds | Repetition 2 Yield [2]: 50.65 Bu/acre | Total yield (total average yield) [2]: 50.43 Bu/acre | Repetition 1 Total weight [3]: 15.60 pounds | Repetition 1 Yield [3]: 49.26 Bu/acre | Repetition 2 Total weight [3]: 14.90 pounds | Repetition 2 Yield [3]: 47.12 Bu/acre | Total yield (total average yield) [3]: 48.19 Bu/acre | Repetition 1 Total weight [4]: 16.40 pounds | Repetition 1 Yield [4]: 49.46 Bu/acre | Repetition 2 Total weight [4]: 15.90 pounds | Repetition 2 Yield [4]: 47.45 Bu/acre | Total yield (total average yield) [4]: 48.45 Bu/acre | Repetition 1 Total weight [5]: 16.10 pounds | Repetition 1 Yield [5]: 47.48 Bu/acre | Repetition 2 Total weight [5]: 16.00 pounds | Repetition 2 Yield [5]: 49.21 Bu/acre | Total yield (total average yield) [5]: 48.35 Bu/acre | Repetition 1 Total weight [6]: 15.50 pounds | Repetition 1 Yield [6]: 46.85 Bu/acre | Repetition 2 Total weight [6]: 14.90 pounds | Repetition 2 Yield [6]: 45.78 Bu/acre | Total yield (total average yield) [6]: 46.31 Bu/acre | Repetition 1 Total weight [7]: 14.50 pounds | Repetition 1 Yield [7]: 44.99 Bu/acre | Repetition 2 Total weight [7]: 14.90 pounds | Repetition 2 Yield [7]: 46.13 Bu/acre | Total yield (total average yield) [7]: 45.56 Bu/acre | Repetition 1 Total weight [8]: 13.40 pounds | Repetition 1 Yield [8]: 41.93 Bu/acre | Repetition 2 Total weight [8]: 14.30 pounds | Repetition 2 Yield [8]: 44.99 Bu/acre | Total yield (total average yield) [8]: 43.46 Bu/acre | Repetition 1 Total weight [9]: 14.90 pounds | Repetition 1 Yield [9]: 46.40 Bu/acre | Repetition 2 Total weight [9]: 14.00 pounds | Repetition 2 Yield [9]: 43.83 Bu/acre | Total yield (total average yield) [9]: 45.12 Bu/acre | Repetition 1 Total weight (Average over 0.01-0.09 ounces): 15.23 pounds | Repetition 1 Yield (Average over 0.01-0.09 ounces): 47.01 Bu/acre | Repetition 2 Total weight (Average over 0.01-0.09 ounces): 15.18 pounds | Repetition 2 Yield (Average over 0.01-0.09 ounces): 47.12 Bu/acre | Total yield (total average yield) (Average over 0.01-0.09 ounces): 47.06 Bu/acre
